Data set [1] has as its system L. monocytogenes strains (CIP 103575, LM1, LM2, LM3). Kind of data set: MIC on a wider panel of strains (Example 10), microdilution. Type of data set: cell-based. To be noted: Listeria monocytogenes, CIP103575. The method, then: The cultures studied, freshly isolated (after incubation on a blood agar at 37° C. for 18 h), are taken up in sterile water (10 mL) until obtaining a 0.5 McFarland (Mc) suspension i.e. 1 to 1 to 2×10^8 CFU (bacteria)/cm^3. The bacterial suspension was then diluted to obtain a final concentration of 1×10^6 CFU/cm^3. Each well contains an identical quantity of Mueller-Hinton medium (a rich medium for bacterial culture) and bacteria with final [concentration of] 0.5×10^6 CFU/cm^3. The test compounds of interest are solubilized in ethanol or DMSO at 25 mg/mL before being diluted to different concentrations two by two. On the multiwell plate, a first series has been planned comprising the culture medium without the test compound of interest. It corresponds to the growth control (control well). These controls serve as reference for comparing bacterial growth with that of the subsequent wells comprising different concentrations of the test compound of interest. The second series of wells comprises the mother solution for the test compound of interest for a concentration in the wells of 256 mg/L (7 mM). Each series of wells was diluted two by two until the last series for a final concentration of 0.25 mg/L (0.0007 mM). Each concentration is duplicated in the same plate. The plate is incubated for 18 h at 37° C. […] If there is antibacterial activity, the bacterial growth is inhibited, which means that no turbidity or bacterial residue is present. The minimum inhibitory concentrations (MIC) are tested on Gram-positive bacterial strains according to the recommendations of the “Clinical Laboratory Standards Institute” (Clinical-Laboratory-Standards-Institute, 6th ed. Approved standard M100-S17. CLSI, Wayne, Pa., 2007). The clinical strains have been isolated in the Hospice de Lyon. Listeria: L. monocytogenes (CIP 103575), clinical strain isolated from hemoculture (015189074801, LM1), a strain isolated from cerebrospinal liquid (015170199001, LM2), clinical strains isolated from hemoculture (015181840701, LM3). The cultures studied, freshly isolated (after incubation on a blood agar at 37° C. for 18 h), are taken up in sterile water (10 mL) until obtaining a 0.5 McFarland (Mc) suspension i.e. At 10^8 CFU (bacteria)/cm^3. The bacterial suspension was then diluted to obtain a final concentration of 10^6 CFU/cm^3.
For orientation: Broth dilution looks for growth in wells or tubes with falling amounts of substance.

A short description of data set [2]: Water solubility of test solutions. To be noted: solutions diluted in water, 2.5% m ethanol; precipitates formed. Type of data set: physicochemical. On the procedure:
Tests have been conducted on Gram-positive bacteria with methyl glucopyranoside derivatives. […] After sterilization the solutions are diluted in water. […] Because precipitates formed in the solutions, the effect of these methyl glucopyranoside C10 and C12 acetals was not able to be evaluated. The results obtained for antimicrobial tests on the 3 bacterial strains L. monocytogenes (CIP 103575), E. faecalis (ATCC® 29212) and S. aureus (ATCC® […]) are summarized in Table 1.

[3] abbreviates: L. monocytogenes CIP 103575, read-out: MIC Listeria CIP 103575.

As usually defined, the MIC is the lowest concentration that inhibits growth of the organism. One may read the melting point as the temperature of the solid-liquid transition.

Structures are written as SMILES. Values after ≈ are worked out from the molar mass of the structure shown. Like-named read-outs stand apart in the source and are kept apart here.

`CCCCCCCCCCCC1OCC2O[C@H](OC)C(O)C(O)[C@@H]2O1` (stereo partly drawn) [Compound 1e, Methyl 4,6-O-Dodecylidene α-D-glucopyranoside]: the melting point is 69 °C. For the same molecule, in data set [1] (setting [3]), the MIC was 64 µg/mL (≈ 178 µM). The water solubility result in data set [2] is on record as “low water solubility”.

With `CCCCCCCCCCCC1OCC2O[C@@H](OC)C(O)C(O)[C@@H]2O1` (stereo partly drawn) [Compound 1f, Methyl 4,6-O-Dodecylidene β-D-glucopyranoside], the melting point was 84 °C. In data set [1] (setting [3]), the MIC stood at 16 µg/mL (≈ 44.4 µM). In addition, the MIC in data set [1] (clinical strain from hemoculture 015181840701, read-out: MIC Listeria LM3) was found to be 64 µg/mL (≈ 178 µM). Also, the MIC in data set [1] (clinical strain from hemoculture 015189074801, read-out: MIC Listeria LM1) came out at 16 µg/mL (≈ 44.4 µM). The MIC in data set [1] (strain from cerebrospinal liquid 015170199001, read-out: MIC Listeria LM2) came to 16 µg/mL (≈ 44.4 µM).

The record behind these values is patent US10537103B2, “Antibacterial composition containing an isomer mixture of monosaccharide alkyl monoacetals or monoethers” (TEREOS STARCH & SWEETENERS BELGIUM, priority 2014, dated 2020).
